In ChEMBL document CHEMBL4190308, “Drifting of heme-coordinating group in imidazolylmethylxanthones leading to improved selective inhibition of CYP11B1” (Eur J Med Chem, 2017):

How the values were obtained:
[1] = target: T1, Cytochrome P450 11B1, mitochondrial (Homo sapiens, UniProt P15538); assay: Inhibition of human CYP11B1 expressed in hamster V79MZh cells using [1,2-3H]-11-deoxycorticosterone as substrate after 6 hrs by HPTLC analysis; assay type: cell-based
T1 sequence (P15538 whole entry): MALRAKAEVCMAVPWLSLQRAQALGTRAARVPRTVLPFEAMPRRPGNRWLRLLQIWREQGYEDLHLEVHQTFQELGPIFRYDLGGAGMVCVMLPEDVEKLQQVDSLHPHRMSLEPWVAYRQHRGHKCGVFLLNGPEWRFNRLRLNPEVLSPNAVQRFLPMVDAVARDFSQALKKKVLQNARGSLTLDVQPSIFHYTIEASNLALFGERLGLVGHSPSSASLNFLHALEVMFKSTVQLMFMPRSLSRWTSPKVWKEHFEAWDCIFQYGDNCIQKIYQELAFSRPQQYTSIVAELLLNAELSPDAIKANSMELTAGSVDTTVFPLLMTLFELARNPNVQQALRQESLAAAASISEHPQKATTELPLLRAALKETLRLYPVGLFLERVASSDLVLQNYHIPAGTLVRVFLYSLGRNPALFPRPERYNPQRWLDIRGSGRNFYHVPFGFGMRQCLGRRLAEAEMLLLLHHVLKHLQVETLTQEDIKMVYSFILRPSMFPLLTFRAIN

[2] = target: T2, Cytochrome P450 11B2, mitochondrial (Homo sapiens, UniProt P19099); assay: Inhibition of human CYP11B2 expressed in hamster V79MZh cells using [1,2-3H]-11-deoxycorticosterone as substrate after 30 mins by HPTLC analysis; assay type: cell-based
T2 sequence (P19099 whole entry): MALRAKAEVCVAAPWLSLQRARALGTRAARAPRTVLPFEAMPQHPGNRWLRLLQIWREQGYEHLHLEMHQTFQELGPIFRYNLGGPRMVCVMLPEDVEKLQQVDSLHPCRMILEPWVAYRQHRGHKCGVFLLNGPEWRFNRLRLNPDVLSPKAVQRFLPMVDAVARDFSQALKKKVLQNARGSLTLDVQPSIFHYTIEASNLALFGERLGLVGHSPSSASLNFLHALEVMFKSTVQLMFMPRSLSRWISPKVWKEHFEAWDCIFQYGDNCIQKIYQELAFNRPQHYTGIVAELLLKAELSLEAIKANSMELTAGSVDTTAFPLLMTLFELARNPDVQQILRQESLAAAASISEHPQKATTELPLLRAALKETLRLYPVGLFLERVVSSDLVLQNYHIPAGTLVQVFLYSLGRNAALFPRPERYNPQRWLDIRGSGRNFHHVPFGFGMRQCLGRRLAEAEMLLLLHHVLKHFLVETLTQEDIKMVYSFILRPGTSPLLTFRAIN

Homo sapiens = species: Homo sapiens; assay: Selectivity index, ratio of IC50 for human CYP11B2 to IC50 for human CYP11B1

IC50 [1] [nM]	IC50 [2] [nM]	Ratio IC50 (Homo sapiens)	SMILES
15.1	43.7	2.9	O=c1c2ccccc2oc2c(Cn3ccnc3)cccc12
12.3	82	6.7	O=c1c2ccc(F)cc2oc2cc(Cn3ccnc3)ccc12
19.2	135	7	O=c1c2ccc(Cn3ccnc3)cc2oc2cc([N+](=O)[O-])ccc12
463	1140	2.5	O=c1c2ccccc2oc2ccc(Cn3ccnc3)cc12
11.4	44.4	3.9	O=c1c2ccc(Br)cc2oc2cc(Cn3ccnc3)ccc12
6.6	95.3	14.4	O=c1c2ccc(Cl)cc2oc2cc(Cn3ccnc3)ccc12
4.7	22.3	4.7	O=c1c2ccc(Cn3ccnc3)cc2oc2cc(OCC3CC3)ccc12
6.5	26.2	4	O=c1c2ccc(Cn3ccnc3)cc2oc2cc(Oc3ccccc3)ccc12
99.1	114	1.2	O=c1c2ccccc2oc2cccc(Cn3ccnc3)c12
70.8	344	4.8	O=c1c2ccccc2oc2cc(Cn3ccnc3)ccc12
4.1	16.6	4	CC(C)Oc1ccc2c(=O)c3ccc(Cn4ccnc4)cc3oc2c1
5.8	20.3	3.5	O=c1c2ccc(Cn3ccnc3)cc2oc2cc(OC3CCCC3)ccc12
15.4	45.4	2.9	COc1ccc2c(=O)c3ccc(Cn4ccnc4)cc3oc2c1
